# Laboratory results from PMC12679550 (ACS Chemical Neuroscience, 2025).
# Like-named read-outs stand apart in the source and are kept apart here.
# Key:
# [1] = system: pERK in HEK293 cells transfected with human α2ARs; assay: ERK phosphorylation in α2AR-transfected HEK293 cells; assay type: cell-based; conditions: 1 μM, 5 min
# Procedure: (§1) Cells were serum-starved for 75 min and treated with ligands in 1 mL of fresh DMEM in the absence of serum as described in the figure legends. Cells were washed three times with ice-cold phosphate-buffered saline, lysed on ice in Radio-Immunoprecipitation Assay buffer, centrifuged to clarify the supernatant, normalized to protein concentration, and boiled in Laemmli sample buffer. Following sodium dodecyl sulfate–polyacrylamide gel electrophoresis, gels were transferred, blocked in 5% BSA and incubated with 1:1000 rabbit phospho-ERK1/2 (#9101, Cell Signaling Technology, Danvers, MA) and imaged with enhanced chemiluminescence (ECL). Blots were stripped and reprobed with rabbit ERK1/2 (#9102, Cell Signaling Technology) antibody and imaged with ECL to assess protein loading.
# [2] = system: pERK in nontransfected HEK293 cells; assay: ERK phosphorylation in nontransfected, knockout and antagonist-cotreated HEK293 cells; assay type: cell-based, human; conditions: for pERK-stimulating effect with 100 nM atipamezole cotreatment / pERK-stimulating effect with 100 nM prazosin cotreatment: HEK293; for pERK-stimulating effect with 100 nM prazosin cotreatment: CLON and ISO 1 μM, mitragynine 1 μM; for pERK, nontransfected HEK293: concentration not given
# Procedure: as §1
# β1 and β2 adrenoceptors = conditions: in vitro; literature; read-out: Affinity (Kd) at β1 and β2 adrenoceptors; cited from earlier work
# human α2Rs = conditions: in vitro, literature, cited from earlier work
# α2AR [3] = molecular target: T1, α2AR (Homo sapiens, UniProt P08913); assay: cell-based
# T1 sequence (P08913 1-465): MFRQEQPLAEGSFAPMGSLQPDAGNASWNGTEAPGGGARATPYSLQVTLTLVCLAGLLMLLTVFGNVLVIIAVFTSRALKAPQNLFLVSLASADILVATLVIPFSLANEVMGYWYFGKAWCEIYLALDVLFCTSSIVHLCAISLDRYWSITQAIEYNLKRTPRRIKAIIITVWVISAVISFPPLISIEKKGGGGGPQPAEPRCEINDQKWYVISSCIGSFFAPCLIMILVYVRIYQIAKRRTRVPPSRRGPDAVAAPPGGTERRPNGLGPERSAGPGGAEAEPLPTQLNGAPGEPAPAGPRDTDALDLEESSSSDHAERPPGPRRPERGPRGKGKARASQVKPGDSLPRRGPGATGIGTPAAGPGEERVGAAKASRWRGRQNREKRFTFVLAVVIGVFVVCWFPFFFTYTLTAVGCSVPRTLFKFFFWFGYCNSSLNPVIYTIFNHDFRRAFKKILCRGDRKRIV
# human α1Rs = conditions: in vitro, literature, cited from earlier work
# α2AR [4] = molecular target: T1, α2AR; conditions: α2AR-expressing CHO-K1 cells
# α2AR [5] = molecular target: T1, α2AR; conditions: agonist mode; CHO-K1 cells
# α1AR [6] = molecular target: T2, α1AR (Homo sapiens, UniProt P35348); assay: cell-based
# T2 sequence (P35348 1-466): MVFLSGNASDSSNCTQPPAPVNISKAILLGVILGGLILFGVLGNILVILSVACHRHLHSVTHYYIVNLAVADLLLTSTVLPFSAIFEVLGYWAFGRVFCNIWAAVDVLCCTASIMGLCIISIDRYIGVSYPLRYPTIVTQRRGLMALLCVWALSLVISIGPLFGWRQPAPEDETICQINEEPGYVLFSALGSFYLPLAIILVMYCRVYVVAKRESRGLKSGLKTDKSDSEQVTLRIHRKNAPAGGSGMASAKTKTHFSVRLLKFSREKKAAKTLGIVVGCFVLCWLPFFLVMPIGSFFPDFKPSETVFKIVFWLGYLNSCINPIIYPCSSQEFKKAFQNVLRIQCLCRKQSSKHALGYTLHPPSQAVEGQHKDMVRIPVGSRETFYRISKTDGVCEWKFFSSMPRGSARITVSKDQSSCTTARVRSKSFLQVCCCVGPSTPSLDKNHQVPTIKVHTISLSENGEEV
# α2AR [7] = molecular target: T1, α2AR; conditions: data not shown
# α1A and α1BR = conditions: read-out: EC50, α1A and α1BR-pERK; a recent report; cited from earlier work
# rat α2AR [8] = molecular target: T3, rat α2AR (Rattus norvegicus, UniProt P22909); conditions: agonist mode; HEK293 cells; Figure S2
# T3 sequence (P22909 1-465): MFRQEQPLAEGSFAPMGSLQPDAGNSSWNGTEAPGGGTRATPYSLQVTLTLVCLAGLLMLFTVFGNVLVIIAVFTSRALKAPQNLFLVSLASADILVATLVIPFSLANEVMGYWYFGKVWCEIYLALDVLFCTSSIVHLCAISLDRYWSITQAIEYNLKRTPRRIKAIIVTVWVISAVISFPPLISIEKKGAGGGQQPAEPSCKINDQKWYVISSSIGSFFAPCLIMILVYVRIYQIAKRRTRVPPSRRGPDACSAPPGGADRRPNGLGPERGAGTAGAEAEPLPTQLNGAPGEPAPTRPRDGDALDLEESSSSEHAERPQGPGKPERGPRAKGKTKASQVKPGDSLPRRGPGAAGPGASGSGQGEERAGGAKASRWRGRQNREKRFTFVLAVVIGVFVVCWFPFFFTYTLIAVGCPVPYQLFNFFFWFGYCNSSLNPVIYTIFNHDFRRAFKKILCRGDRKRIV
# rat α2AR [9] = molecular target: T3, rat α2AR; conditions: agonist mode; CHO-K1 cells
# [10] = system: voltage-gated sodium channels; assay: Eurofins Cerep radioligand binding screen; conditions: 10 μM
# Procedure: (§2) The compounds were screened at each target once, in duplicate, at 100 nM and 10 μM. […] The assay was valid if the reliability criteria, K i or IC50 values within 1/2 Log of historical values, were met. Radioligand binding assay methods were as previously described with only minor modifications , (see table in Supplementary Figure S4 for radioligands, protein sources, and assay test conditions). Briefly, cell membrane homogenates were incubated with either an antagonist or agonist radioligand in the absence or presence of the test compound in a buffer. A specific unlabeled agonist or antagonist at the target determined nonspecific binding. Following incubation, the samples were filtered rapidly under vacuum through glass fiber filters presoaked in a buffer and rinsed several times with an ice-cold buffer using a 48-sample or 96-sample cell harvester. Using a scintillation cocktail, the filters were counted for radioactivity in a scintillation counter. Compound binding was calculated as a percent inhibition of the binding of the radioactively labeled ligand specific for each target. Preparatory methods for enzyme inhibition assays were similar to radioligand binding assays. These assays involved using a known substrate, stimulus, and/or tracer, and detection methods included LANCE, fluorimetry, photometry, luminescence, or scintillation counting (see table in Supplementary Figure S4). Results of the screening assays showing an inhibition or stimulation higher than 50% were designated “hits” and considered to represent significant effects of the test compounds.
# α2BR = molecular target: T4, α2BR (Homo sapiens, UniProt P18089); assay: Eurofins Cerep radioligand binding screen; conditions: 10 μM; also previously reported
# T4 construct: Eurofins Cerep; host or cells: cell membrane homogenates
# Procedure: as §2
# α1DR = molecular target: T5, α1DR (Homo sapiens, UniProt P25100); assay: Eurofins Cerep radioligand binding screen; conditions: 10 μM
# T5 construct: Eurofins Cerep; host or cells: cell membrane homogenates
# Procedure: as §2
# serotonin transporter = molecular target: T6, serotonin transporter (Homo sapiens, UniProt P31645); assay: Eurofins Cerep radioligand binding screen; conditions: 10 μM
# T6 construct: Eurofins Cerep; host or cells: cell membrane homogenates
# Procedure: as §2
# COX2 = molecular target: T7, COX2 (Homo sapiens, UniProt P35354); assay: Eurofins Cerep enzyme inhibition screen; assay type: biochemical; conditions: 10 μM
# T7 construct: Eurofins Cerep
# Procedure: (§3) The compounds were screened at each target once, in duplicate, at 100 nM and 10 μM. […] The assay was valid if the reliability criteria, K i or IC50 values within 1/2 Log of historical values, were met. Radioligand binding assay methods were as previously described with only minor modifications , (see table in Supplementary Figure S4 for radioligands, protein sources, and assay test conditions). Briefly, cell membrane homogenates were incubated with either an antagonist or agonist radioligand in the absence or presence of the test compound in a buffer. A specific unlabeled agonist or antagonist at the target determined nonspecific binding. Following incubation, the samples were filtered rapidly under vacuum through glass fiber filters presoaked in a buffer and rinsed several times with an ice-cold buffer using a 48-sample or 96-sample cell harvester. Using a scintillation cocktail, the filters were counted for radioactivity in a scintillation counter. Compound binding was calculated as a percent inhibition of the binding of the radioactively labeled ligand specific for each target. Preparatory methods for enzyme inhibition assays were similar to radioligand binding assays. These assays involved using a known substrate, stimulus, and/or tracer, and detection methods included LANCE, fluorimetry, photometry, luminescence, or scintillation counting (see table in Supplementary Figure S4). […]
# α2AR [11] = molecular target: T1, α2AR; assay: Eurofins Cerep radioligand binding screen; parameters: Eurofins Cerep; host or cells: cell membrane homogenates; conditions: 10 μM; also previously reported
# Procedure: as §2
# α1AR [12] = molecular target: T2, α1AR; assay: Eurofins Cerep radioligand binding screen; parameters: Eurofins Cerep; host or cells: cell membrane homogenates; conditions: 10 μM
# Procedure: as §2
# δ-opioid receptors = molecular target: T8, δ-opioid receptors (Homo sapiens, UniProt P41143); assay: Eurofins Cerep radioligand binding screen; conditions: 10 μM
# T8 construct: Eurofins Cerep; host or cells: cell membrane homogenates
# Procedure: as §2
# μ-opioid receptors = molecular target: T9, μ-opioid receptors (Homo sapiens, UniProt P35372); assay: Eurofins Cerep radioligand binding screen; conditions: 10 μM
# T9 construct: Eurofins Cerep; host or cells: cell membrane homogenates
# Procedure: as §2
# κ-opioid receptors = molecular target: T10, κ-opioid receptors (Homo sapiens, UniProt P41145); assay: Eurofins Cerep radioligand binding screen; conditions: 10 μM
# T10 construct: Eurofins Cerep; host or cells: cell membrane homogenates
# Procedure: as §2
# α1BR = molecular target: T11, α1BR (Homo sapiens, UniProt P35368); assay: Eurofins Cerep radioligand binding screen; conditions: 10 μM
# T11 construct: Eurofins Cerep; host or cells: cell membrane homogenates
# Procedure: as §2
# any enzyme tested = assay: Eurofins Cerep enzyme inhibition screen, all enzymes tested; assay type: biochemical; conditions: 10 μM
# Procedure: as §3
# [13] = HEK293, read-out: Emax as percent of clonidine's maximum response, α11
# [14] = HEK293, read-out: Emax as percent of clonidine's maximum response, αq
# T5 sequence (P25100 whole entry): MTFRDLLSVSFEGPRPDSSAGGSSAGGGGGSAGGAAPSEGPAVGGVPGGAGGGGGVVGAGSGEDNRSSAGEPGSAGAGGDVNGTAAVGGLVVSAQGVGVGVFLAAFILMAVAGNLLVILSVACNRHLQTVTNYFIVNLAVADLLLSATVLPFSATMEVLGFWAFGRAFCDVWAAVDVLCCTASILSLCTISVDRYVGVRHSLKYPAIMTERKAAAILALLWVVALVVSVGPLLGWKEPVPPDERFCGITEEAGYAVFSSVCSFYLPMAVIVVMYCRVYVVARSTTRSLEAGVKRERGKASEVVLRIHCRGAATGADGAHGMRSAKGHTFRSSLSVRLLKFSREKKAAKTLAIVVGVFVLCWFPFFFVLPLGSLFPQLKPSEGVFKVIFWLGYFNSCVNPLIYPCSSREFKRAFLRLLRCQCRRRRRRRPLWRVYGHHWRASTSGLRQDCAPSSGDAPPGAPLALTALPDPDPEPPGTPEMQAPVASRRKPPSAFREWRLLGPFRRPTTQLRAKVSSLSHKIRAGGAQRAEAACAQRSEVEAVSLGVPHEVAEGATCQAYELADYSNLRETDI
# T4 sequence (P18089 whole entry): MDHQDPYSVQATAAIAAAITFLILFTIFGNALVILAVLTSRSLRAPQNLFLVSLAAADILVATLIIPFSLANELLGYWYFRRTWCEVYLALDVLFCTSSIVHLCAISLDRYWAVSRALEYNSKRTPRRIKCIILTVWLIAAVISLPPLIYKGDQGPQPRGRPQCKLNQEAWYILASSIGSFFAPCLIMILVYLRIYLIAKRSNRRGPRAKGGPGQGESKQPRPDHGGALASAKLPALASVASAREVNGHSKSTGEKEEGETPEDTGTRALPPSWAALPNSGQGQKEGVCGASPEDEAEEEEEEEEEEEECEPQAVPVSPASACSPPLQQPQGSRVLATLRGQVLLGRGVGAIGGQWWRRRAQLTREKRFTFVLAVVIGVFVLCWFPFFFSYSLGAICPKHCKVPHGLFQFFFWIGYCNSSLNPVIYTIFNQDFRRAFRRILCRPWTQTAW
# T10 sequence (P41145 whole entry): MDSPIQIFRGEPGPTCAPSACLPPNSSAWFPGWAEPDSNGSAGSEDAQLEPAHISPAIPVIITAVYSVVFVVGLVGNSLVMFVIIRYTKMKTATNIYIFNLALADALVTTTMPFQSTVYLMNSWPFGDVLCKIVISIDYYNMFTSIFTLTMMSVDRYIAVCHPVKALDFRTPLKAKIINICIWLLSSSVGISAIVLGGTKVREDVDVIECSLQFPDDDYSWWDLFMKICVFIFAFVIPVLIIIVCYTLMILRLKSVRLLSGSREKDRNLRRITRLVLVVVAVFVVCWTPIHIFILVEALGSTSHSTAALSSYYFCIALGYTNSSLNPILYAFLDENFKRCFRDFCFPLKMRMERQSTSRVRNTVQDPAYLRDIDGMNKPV
# T7 sequence (P35354 18-604): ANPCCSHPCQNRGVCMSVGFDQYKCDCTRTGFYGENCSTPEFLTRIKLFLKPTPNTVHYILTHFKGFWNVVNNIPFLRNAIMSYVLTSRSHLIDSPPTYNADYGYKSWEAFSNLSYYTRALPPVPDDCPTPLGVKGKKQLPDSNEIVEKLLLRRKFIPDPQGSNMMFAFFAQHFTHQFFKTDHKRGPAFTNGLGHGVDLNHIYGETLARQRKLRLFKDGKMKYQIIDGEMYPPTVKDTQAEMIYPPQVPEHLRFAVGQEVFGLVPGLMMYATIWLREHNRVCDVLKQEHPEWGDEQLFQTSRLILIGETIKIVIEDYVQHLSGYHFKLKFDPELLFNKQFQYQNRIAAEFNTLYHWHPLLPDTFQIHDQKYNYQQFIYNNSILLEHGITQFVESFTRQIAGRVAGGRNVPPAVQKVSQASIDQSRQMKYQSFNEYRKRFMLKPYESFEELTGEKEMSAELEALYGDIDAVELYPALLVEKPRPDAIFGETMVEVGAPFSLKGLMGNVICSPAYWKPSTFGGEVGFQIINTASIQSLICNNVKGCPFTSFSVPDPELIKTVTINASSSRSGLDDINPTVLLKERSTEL
# T11 sequence (P35368 whole entry): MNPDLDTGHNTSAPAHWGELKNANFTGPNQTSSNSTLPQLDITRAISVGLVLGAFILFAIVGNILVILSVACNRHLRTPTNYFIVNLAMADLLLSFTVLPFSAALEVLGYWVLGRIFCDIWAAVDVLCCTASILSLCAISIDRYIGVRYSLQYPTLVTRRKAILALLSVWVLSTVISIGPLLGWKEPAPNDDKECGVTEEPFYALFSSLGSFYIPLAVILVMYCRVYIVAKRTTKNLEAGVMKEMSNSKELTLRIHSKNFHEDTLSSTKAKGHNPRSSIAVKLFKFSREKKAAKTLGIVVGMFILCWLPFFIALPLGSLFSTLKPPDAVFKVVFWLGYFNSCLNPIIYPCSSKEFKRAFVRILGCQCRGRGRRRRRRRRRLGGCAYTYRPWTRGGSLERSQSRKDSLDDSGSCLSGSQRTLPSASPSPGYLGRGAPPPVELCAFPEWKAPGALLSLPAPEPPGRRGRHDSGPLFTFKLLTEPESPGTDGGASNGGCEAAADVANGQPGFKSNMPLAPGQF
# T9 sequence (P35372 whole entry): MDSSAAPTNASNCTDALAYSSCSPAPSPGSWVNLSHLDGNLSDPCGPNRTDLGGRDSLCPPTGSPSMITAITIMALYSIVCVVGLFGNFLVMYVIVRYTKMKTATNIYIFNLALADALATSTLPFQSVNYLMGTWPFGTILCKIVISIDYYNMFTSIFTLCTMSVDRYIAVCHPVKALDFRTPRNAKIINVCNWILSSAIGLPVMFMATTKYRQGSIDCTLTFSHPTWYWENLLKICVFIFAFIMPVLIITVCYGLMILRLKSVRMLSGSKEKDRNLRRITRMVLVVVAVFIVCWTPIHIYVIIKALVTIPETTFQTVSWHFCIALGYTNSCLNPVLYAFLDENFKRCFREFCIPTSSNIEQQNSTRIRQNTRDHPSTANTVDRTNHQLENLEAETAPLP
# T6 sequence (P31645 whole entry): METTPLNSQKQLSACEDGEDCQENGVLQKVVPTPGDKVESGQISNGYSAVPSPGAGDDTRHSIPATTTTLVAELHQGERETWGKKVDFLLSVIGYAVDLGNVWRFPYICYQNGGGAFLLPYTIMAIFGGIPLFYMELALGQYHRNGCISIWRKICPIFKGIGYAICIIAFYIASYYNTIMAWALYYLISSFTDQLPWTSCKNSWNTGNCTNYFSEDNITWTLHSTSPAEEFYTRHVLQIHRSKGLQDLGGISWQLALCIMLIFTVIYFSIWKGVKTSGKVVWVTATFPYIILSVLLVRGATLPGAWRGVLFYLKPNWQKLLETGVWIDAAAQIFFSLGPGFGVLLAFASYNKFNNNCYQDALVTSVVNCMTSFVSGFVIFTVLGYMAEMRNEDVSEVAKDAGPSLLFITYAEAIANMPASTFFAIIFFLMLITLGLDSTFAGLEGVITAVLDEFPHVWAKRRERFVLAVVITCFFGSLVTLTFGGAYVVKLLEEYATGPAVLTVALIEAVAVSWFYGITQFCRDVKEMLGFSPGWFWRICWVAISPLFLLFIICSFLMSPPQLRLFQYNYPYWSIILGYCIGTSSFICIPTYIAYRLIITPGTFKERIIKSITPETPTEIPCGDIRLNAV
# T8 sequence (P41143 whole entry): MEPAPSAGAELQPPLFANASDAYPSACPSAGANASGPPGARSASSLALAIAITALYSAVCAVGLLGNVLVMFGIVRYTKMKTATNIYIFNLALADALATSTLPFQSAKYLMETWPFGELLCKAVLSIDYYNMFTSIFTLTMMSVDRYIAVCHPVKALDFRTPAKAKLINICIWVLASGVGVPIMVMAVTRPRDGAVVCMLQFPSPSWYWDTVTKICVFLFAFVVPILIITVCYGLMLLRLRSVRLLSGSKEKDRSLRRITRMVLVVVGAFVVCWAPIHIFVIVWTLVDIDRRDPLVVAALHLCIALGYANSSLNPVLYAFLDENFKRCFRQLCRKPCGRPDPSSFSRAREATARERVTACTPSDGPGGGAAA
structure (smiles),measurement,setting,value
CC(C)NCC(O)c1ccc(O)c(O)c1 (stereo not shown) [isoproterenol],"pERK relative to buffer, α2AR-transfected HEK293",[1],significantly increased pERK
same,"pERK relative to buffer, nontransfected HEK293","[2]; 1 μM, 5 min",stimulated pERK
same,pERK-stimulating effect with 100 nM atipamezole cotreatment,[2],not affected
same,pERK-stimulating effect with 100 nM prazosin cotreatment,[2],not affected
CCC1(c2cnc[nH]2)Cc2ccccc2C1 [atipamezole],Kd,β1 and β2 adrenoceptors,> 30000 nM
same,Affinity (Kd) at each of the human α2Rs,human α2Rs,double-digit nM
same,Kb,α2AR [3],6.92 nM
same,Kd,human α1Rs; read-out: Affinity (Kd) at each of the α1Rs,≥ 1000 nM
same,"β-arrestin2 recruitment, agonist mode",α2AR [4],did not recruit β-arrestin2
Clc1cccc(Cl)c1N=C1NCCN1 [clonidine],"Effect on forskolin-stimulated cAMP, human α2AR",α2AR [5],decreased forskolin-stimulated cAMP production
same,Emax,α1AR [6]; [13],100%
same,Emax,α1AR [6]; [14],100%
same,Activation of Gαq or Gα11 via α2ARs,α2AR [7],no effect
same,EC50,α1A and α1BR,< 100 nM
same,"Effect on forskolin-induced cAMP, rat α2AR in HEK293",rat α2AR [8],attenuated forskolin-induced cAMP production
same,"Effect on forskolin-stimulated cAMP, rat α2AR",rat α2AR [9],agonist
same,pERK-stimulating effect in Gαq/11 knockout HEK293 cells,"[2]; 1 μM, 5 min, vs CRISPR scrambled",abolished
same,pERK-stimulating effect with 100 nM atipamezole cotreatment,[2],did not affect
same,pERK-stimulating effect with 100 nM prazosin cotreatment,[2],abolished
CC[C@@H]1CN2CCc3c([nH]c4cccc(O)c34)[C@@H]2C[C@@H]1/C(=C\OC)C(=O)OC [9-Hydroxycorynantheidine],"Inhibition of radioligand binding, voltage-gated sodium channels",[10],~57%
same,"Inhibition of specific radioligand binding, α2B",α2BR,less than 25%
same,"Inhibition of specific radioligand binding, α1D",α1DR,more than 60%
same,"Inhibition of radioligand binding, serotonin transporter",serotonin transporter,~58%
same,Inhibition of COX2,COX2,> 70%
same,"Inhibition of specific radioligand binding, α2A",α2AR [11],less than 25%
same,"Inhibition of specific radioligand binding, α1A",α1AR [12],more than 60%
"Brc1c(NC2=NCCN2)ccc2nccnc12 [UK 14, 304 (brimonidine), brimonidine, reference compound]","β-arrestin2 recruitment, agonist mode",α2AR [4],robust α2AR-β-arrestin2 recruitment
same,"pERK, nontransfected HEK293",[2],did not increase pERK
CNC[C@H](O)c1ccc(O)c(O)c1 [epinephrine],Emax,α1AR [6]; [13],279%
CC[C@@H]1CN2CC[C@@]3(O)C(=Nc4cccc(OC)c43)[C@@H]2C[C@@H]1/C(=C\OC)C(=O)OC [7-Hydroxymitragynine],"Inhibition of radioligand binding, δ-opioid receptors",δ-opioid receptors,more than 50%
same,"Inhibition of radioligand binding, μ-opioid receptors",μ-opioid receptors,more than 50%
same,"Inhibition of specific radioligand binding, α2B",α2BR,less than 15%
same,"Inhibition of radioligand binding, κ-opioid receptors",κ-opioid receptors,more than 50%
same,"Inhibition of specific radioligand binding, α1D",α1DR,less than 15%
same,"Inhibition of specific radioligand binding, α1B",α1BR,less than 15%
same,"Inhibition of specific radioligand binding, α2A",α2AR [11],less than 15%
same,"Inhibition of specific radioligand binding, α1A",α1AR [12],less than 15%
same,Inhibition of the activity of enzymes tested,any enzyme tested,did not inhibit the activity of any enzyme tested
"COc1cc2nc(N3CCN(C(=O)c4ccco4)CC3)nc(N)c2cc1OC [Prazosin, prazosin]",Kd,β1 and β2 adrenoceptors,≥ 8000 nM
same,Kd,human α2Rs; read-out: Affinity (Kd) at each of the human α2Rs,≥ 300 nM
same,Affinity (Kd) at each of the α1Rs,human α1Rs,single-digit nM or higher affinity
CC(Oc1c(Cl)cccc1Cl)C1=NCCN1 (stereo not shown) [lofexidine],EC50,"α1AR [6]; EC50, α11, α1AR-Gα11",112 nM
same,EC50,"α1AR [6]; EC50, αq, α1AR-Gαq",95.5 nM
same,Emax,α1AR [6]; [13],76%
same,Emax,α1AR [6]; [14],84%
CNC[C@H](O)c1cccc(O)c1 [phenylephrine],"pERK, nontransfected HEK293",[2],robust increases in pERK
